Laboratory results reported in PubChem BioAssay AID1963847 (Molecular Pharmacology Branch, DTP, NCI, 2024).
Several values for one entry are separate records, joined by “and”; a condition that tells them apart may be missing. Equal values may be shown once.

Tested on: 415267-285-R-J2-PDC complex spheroid viability
Experiment: Anticancer human tumor 415267-285-R-J2-PDC patient-derived breast carcinoma cell line growth inhibition [POLQ]
Conditions: for viability, T/C: stronger effect = lower value
Method: Multicellular complex tumor spheroid response to Polymerase (POL) inhibitors (novobiocin, ART-558, RP6685) in combination with a variety of drugs and investigational agents in selected tumor cell lines
The POL inhibitors (novobiocin, ART-558, and RP6685) were evaluated both individually and in combination with standard of care and investigational anticancer small molecules within a complex spheroid model of solid tumors. . Complex spheroids include a stromal component modeled by human endothelial cells (HUVEC) and fibroblasts modeled by human mesenchymal stem cells (MSCs). The concentration ranges selected for each drug and investigational agent were based upon clinically achievable concentrations if the clinical Cmax of the agent was known.
Compounds. The drugs and investigational agents: novobiocin (NSC847541), ART-558 (NSC835418), RP-6685 (NSC848927), peposertib (NSC802822), ceralasertib (NSC780249), elimusertib (NSC800525), camonsertib (NSC841442), AZD-1390 (NSC803789), olaparib (NSC753686), talazoparib (NSC767125), rucaparib (NSC756644), sotorasib (NSC818433), MRTX-1133 (NSC836407), SN-38 (NSC673596), topotecan (NSC609699), epotoside (NSC141540), doxorubicin (NSC123127), gemcitabine (NSC613327), 5-fluorouracil (NSC19893), paclitaxel (NSC125973), vemurafenib (NSC761431), MSA-2 (NSC828583), SN-011 (NSC837082), adavosertib (NSC754352), prexasertib (NSC758257), carboplatin (NSC241240) and oxaliplatin (NSC266046), were obtained from the National Cancer Institute (NCI) Developmental Therapeutics Program Chemical Repository (21). The FDA-approved anticancer drug set is available from the Developmental Therapeutics Program at https://dtp.cancer.gov/organization/dscb/obtaining/. […] The stock solutions were prepared in dimethyl sulfoxide (DMSO, Sigma-Aldrich, St. Louis, MO, cat. D2650), except for the platinum compounds which were prepared in saline (Quality Biological, Gaithersburg, MD, cat. 114-055-101), at 800-fold the tested concentration and stored at -70 degrees C prior to their use. All drugs and investigational agents were tested over a range starting from a high concentration at or near the clinical Cmax and decreasing in half-log increments. If the clinical Cmax for an agent had not been determined, the highest concentration tested was 10 microM, except for SN-38, which was tested at a high concentration of 1 microM.
Cell Culture. All cells were maintained in an incubator at 37 degrees C and 5% CO2 with 95% humidity. The PDC lines were cultured according to standard operating procedures established by the NCI PDMR (https://pdmr.cancer.gov). Table 3 of the manuscript, lists the cell lines along with the number of the three cell types plated to form the mct-spheroids and media for tumor cell growth. After thawing, all PDC lines, except 997537-175-T-J1-PDC and 415267-285-R-J2-PDC, were cultured in Matrigel-coated flasks prepared with a working solution of 1X Ham's F-12 nutrient mix, without supplementation (Thermo Fisher Scientific, cat. 11765054), 100 U/mL penicillin-streptomycin (Thermo Fisher Scientific, cat. 15140122), and 2.5% Matrigel (Corning Inc., Corning, NY, cat. 354248) for the first three passages. The two PDC lines 997537-175-T-J1-PDC and 415267-285-R-J2-PDC were cultured on uncoated flasks. The 857933-349-R-J2-PDC line was cultured in 6C/Colon 1B media containing advanced DMEM/F-12 (Thermo Fisher Scientific, cat. 12634028), 10 mM HEPES (Thermo Fisher Scientific, cat. 15630080), 1X GlutaMAX supplement (Thermo Fisher Scientific, cat. 35050061), 0.1 mg/mL primocin (InvivoGen, San Diego, CA, cat. ant-pm-2), 10% defined fetal bovine serum, heat inactivated (HyClone Laboratories Inc., Logan, UT, cat. SH30070.03HI), 50% L-WRN conditioned media (ATCC, cat. CRL-3276), 1.25 mM N-Acetyl-L-cysteine (Sigma-Aldrich, cat. A9165), 10 mM nicotinamide (Sigma-Aldrich, cat. N0636), 1X B-27 supplement (Thermo Fisher Scientific, cat. 17504044), 1X N-2 supplement (Thermo Fisher Scientific, cat. […]
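Note: spheroids exposed to compounds for one week before readout.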
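Throughout, for viability, T/C: luminescence used as stand-in measure of viable cells; 100% = DMSO vehicle control viability.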

CCCS(=O)(=O)Nc1ccc(F)c(C(=O)c2c[nH]c3ncc(-c4ccc(Cl)cc4)cc23)c1F
viability, T/C (compound 0.0316 µM): 96.6% and 91.5% and 93.2%
viability, T/C (compound 0.1 µM): 96.8% and 99.3% and 96.4%
viability, T/C (compound 0.316 µM): 104% and 98% and 94.8%
viability, T/C (compound 1 µM): 107% (2×) and 100%
viability, T/C (compound 3.16 µM): 88.1% and 98.2% and 98%
viability, T/C (compound 10 µM): 86.5% and 87.4% and 72%
IC50 (curve of compound): > 10 µM

CCCS(=O)(=O)Nc1ccc(F)c(C(=O)c2c[nH]c3ncc(-c4ccc(Cl)cc4)cc23)c1F + Cc1cccc(N(C)C(=O)C2C(O)CCN2c2nc(C)cc(C(F)(F)F)c2C#N)c1
IC50 (curve of first compound, second compound 0.0316 µM): > 10 µM
IC50 (curve of first compound, second compound 0.1 µM): > 10 µM
IC50 (curve of first compound, second compound 0.316 µM): > 10 µM
IC50 (curve of first compound, second compound 1 µM): > 10 µM
IC50 (curve of first compound, second compound 3.16 µM): > 10 µM
IC50 (curve of first compound, second compound 10 µM): > 10 µM
viability, T/C (second compound 0.0316 µM, first compound 0.0316 µM): 98.8%
viability, T/C (second compound 0.0316 µM, first compound 0.1 µM): 111%
viability, T/C (second compound 0.0316 µM, first compound 0.316 µM): 99%
viability, T/C (second compound 0.0316 µM, first compound 1 µM): 93.8%
viability, T/C (second compound 0.0316 µM, first compound 3.16 µM): 86.3%
viability, T/C (second compound 0.0316 µM, first compound 10 µM): 91.2%
viability, T/C (second compound 0.1 µM, first compound 0.0316 µM): 104%
viability, T/C (second compound 0.1 µM, first compound 0.1 µM): 93.5%
viability, T/C (second compound 0.1 µM, first compound 0.316 µM): 93.4%
viability, T/C (second compound 0.1 µM, first compound 1 µM): 102%
viability, T/C (second compound 0.1 µM, first compound 3.16 µM): 96.5%
viability, T/C (second compound 0.1 µM, first compound 10 µM): 88.9%
viability, T/C (second compound 0.316 µM, first compound 0.0316 µM): 105%
viability, T/C (second compound 0.316 µM, first compound 0.1 µM): 99.4%
viability, T/C (second compound 0.316 µM, first compound 0.316 µM): 90.3%
viability, T/C (second compound 0.316 µM, first compound 1 µM): 102%
viability, T/C (second compound 0.316 µM, first compound 3.16 µM): 97.7%
viability, T/C (second compound 0.316 µM, first compound 10 µM): 86.7%
viability, T/C (second compound 1 µM, first compound 0.0316 µM): 105%
viability, T/C (second compound 1 µM, first compound 0.1 µM): 101%
viability, T/C (second compound 1 µM, first compound 0.316 µM): 102%
viability, T/C (second compound 1 µM, first compound 1 µM): 99.9%
viability, T/C (second compound 1 µM, first compound 3.16 µM): 107%
viability, T/C (second compound 1 µM, first compound 10 µM): 79.3%
viability, T/C (second compound 3.16 µM, first compound 0.0316 µM): 111%
viability, T/C (second compound 3.16 µM, first compound 0.1 µM): 103%
viability, T/C (second compound 3.16 µM, first compound 0.316 µM): 104%
viability, T/C (second compound 3.16 µM, first compound 1 µM): 104%
viability, T/C (second compound 3.16 µM, first compound 3.16 µM): 93.7%
viability, T/C (second compound 3.16 µM, first compound 10 µM): 91.1%
viability, T/C (second compound 10 µM, first compound 0.0316 µM): 96.4%
viability, T/C (second compound 10 µM, first compound 0.1 µM): 96%
viability, T/C (second compound 10 µM, first compound 0.316 µM): 109%
viability, T/C (second compound 10 µM, first compound 1 µM): 111%
viability, T/C (second compound 10 µM, first compound 3.16 µM): 94%
viability, T/C (second compound 10 µM, first compound 10 µM): 73.8%

Nc1ccc(C#CCN(C(=O)Cc2ncc(C(F)(F)F)cc2C(F)(F)F)c2ccc(F)cc2)nn1
viability, T/C (compound 0.0316 µM): 93.6% [middle of 13 runs]
viability, T/C (compound 0.1 µM): 101% [middle of 13 runs]
viability, T/C (compound 0.316 µM): 101% [middle of 12 runs]
viability, T/C (compound 1 µM): 103% [middle of 13 runs]
viability, T/C (compound 3.16 µM): 107% [middle of 13 runs]
viability, T/C (compound 10 µM): 106% [middle of 13 runs]
IC50 (compound alone, run of 01/19/2024): > 10 µM
